Data on 9 compounds can be found in article PMC3289549 (Biochemistry, 2011).

Series [1] has as its target T1, Pin1 (Homo sapiens, UniProt Q13526). Particulars: cited from earlier work.
Series [2] has as its target T1, Pin1. The settings on record: cited from earlier work. This is another data set of the same source.
The target in series [3] is T1, Pin1. Briefly: α-chymotrypsin protease-coupled Pin1 inhibition assay. Type of series: biochemical. The settings on record: for IC50: protease-coupled assay, substrate succinyl–Ala–Glu–cis-Pro–Phe–pNA, 4 °C, duplicate.
Series [4] in a line: Aqueous solubility. The settings on record: qualitative. Type of series: physicochemical.

Entries after “also recorded” stand apart in the source; their conditions may differ. Where two headings read alike, the source gives them in different places.

T1 sequence (Q13526 whole entry): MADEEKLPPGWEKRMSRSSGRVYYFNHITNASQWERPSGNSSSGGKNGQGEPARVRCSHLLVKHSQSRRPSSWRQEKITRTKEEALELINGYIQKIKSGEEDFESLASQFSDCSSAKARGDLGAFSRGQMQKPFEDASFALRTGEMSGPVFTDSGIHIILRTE

For orientation: Ki means the dissociation constant of the complex between target and ligand, obtained from inhibition or displacement. For the compound “Ac–Lys(N-biotinoyl)–Ala–Ala–Bth–D-Thr(PO3H2)–Pip–Nal–Gln–NH2”, the Ki in series [1] is 0.00021 µM.

The IC50 is the concentration at which inhibition is half-maximal. As to `O=C(NC(C=C1CCCC1C(=O)NCCc1c[nH]c2ccccc12)COP(=O)(O)O)OCC1c2ccccc2-c2ccccc21` (stereo not shown) [Fmoc-pSer–Ψ[(Z)CH=C]Pro–2-(indol-3-yl)-ethylamine], the IC50 in series [2] (similarly substituted ground-state (cis-alkene) analogue) was 28.3 µM.

Turning to `CC(=O)N[C@@H](COP(=O)(O)O)CN1CCCCC1C(=O)NCCc1c[nH]c2ccccc12` (mixture of isomers) [Compound 4b, Ac–pSer–Ψ[CH2N]-(R/S)Pip ^a–tryptamine], the IC50 in series [3] came to 189 ± 17 µM.

`CC(OP(=O)(O)O)C(CN1CCCC1C(=O)NCCc1c[nH]c2ccccc12)NC(=O)OCC1c2ccccc2-c2ccccc21` (stereo not shown) [Compound 3, Fmoc–pThr–Ψ[CH2N]-Pro–tryptamine] displayed a 50% inhibitory concentration (IC50) in series [3] of 30 ± 2 µM.

Consider “Ac–pSer–Ψ[COCON]-Pro–2-(naphth-2-yl)-ethylamine”, for which the IC50 in series [2] (similarly substituted α-ketoamide inhibitor) is 100 µM.

“Ac–pSer–Ψ[CH2N]-Pro–tryptamine [Compound 2]” came in with a 50% inhibitory concentration (IC50) in series [3] of 12 ± 2 µM. For the same compound, the “fold less potent than inhibitor 1” value in series [3] (ratio of IC50 values vs 1) worked out at 2 fold. Also, the “fold better than the similarly substituted ketone” value in series [3] (ratio of IC50 values vs Ac–pSer–Ψ[COCH]-Pip–2-(indol-3-yl)-ethylamine) is 5 fold. Moreover, the “fold better than the similarly substituted α-ketoamide inhibitor” value in series [3] (ratio of IC50 values vs Ac–pSer–Ψ[COCON]-Pro–2-(naphth-2-yl)-ethylamine) is 6 fold. Moreover, the aqueous solubility entry in series [4] is on record as “improved aqueous solubility; also recorded: improved the water solubility”.

Compound `CC(=O)N[C@@H](COP(=O)(O)O)CN1CCCCC1C(=O)NCCc1c[nH]c2ccccc12` (mixture of isomers) [Compound 4a, Ac–pSer–Ψ[CH2N]-(R/S)Pip ^a–tryptamine] registered an IC50 in series [3] of 16 ± 2 µM. In addition, the “fold more potent than diastereomer 4b” value in series [3] (ratio of IC50 values vs 4b) is listed as “approximately 12 fold”.

Compound `O=C(N[C@@H](COP(=O)(O)O)CN1CCC[C@H]1C(=O)NCCc1c[nH]c2ccccc12)OCC1c2ccccc2-c2ccccc21` [Compound 1, Fmoc–pSer–Ψ[CH2N]-Pro–tryptamine] returned an IC50 in series [3] of 6.3 ± 0.4 µM. Besides, the “fold better inhibition than compound 3” value in series [3] (ratio of IC50 values vs 3) turned out to be 5 fold. The aqueous solubility entry in series [4] is “very poor”.

With “Ac–pSer–Ψ[COCH]-Pip–2-(indol-3-yl)-ethylamine”, the IC50 in series [2] (similarly substituted ketone) was 61 µM.
